Our source for the relative viability values is the supplement of paper PMC10307832.

Assay in all cases: relative viability (nuclei count vs DMSO), 5 days (fraction); higher = more cells survive
Compound in experiment [1]: O=c1[nH]cc(F)c(=O)[nH]1 [5-Fluorouracil] + CCNC(=O)c1noc(-c2cc(C(C)C)c(O)cc2O)c1-c1ccc(CN2CCOCC2)cc1 [Luminespib] (partner 0.01 µM)
In outline: (§1)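 Relative viability equals treated-well nuclei counts divided by vehicle-well nuclei counts. Counts came from 4× images of lung cancer cell lines grown in 1536-well plates for 5 days after pin-tool dosing on the day after seeding. Dosing used one drug alone or a fixed anchor-drug dose plus five library-drug doses (not always all listed) in √10 steps, and values are medians of duplicate plates.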

Compound in experiment [2]: O=c1[nH]cc(F)c(=O)[nH]1 [5-Fluorouracil] + CS(=O)(=O)CCNCc1ccc(-c2ccc3ncnc(Nc4ccc(OCc5cccc(F)c5)c(Cl)c4)c3c2)o1 [Lapatinib] (partner 2 µM)
In a few lines: as §1

Compound in experiment [3]: O=c1[nH]cc(F)c(=O)[nH]1 [5-Fluorouracil] + CC(=O)c1c(C)c2cnc(Nc3ccc(N4CCNCC4)cn3)nc2n(C2CCCC2)c1=O [Palbociclib] (partner 0.5 µM)
In outline:
as §1

Compound in experiment [4]: CN[C@@H]1C[C@H]2O[C@@](C)([C@@H]1OC)n1c3ccccc3c3c4c(c5c6ccccc6n2c5c31)C(=O)NC4 [Staurosporine] + CC1(C)CCC(c2ccc(Cl)cc2)=C(CN2CCN(c3ccc(C(=O)NS(=O)(=O)c4ccc(N[C@H](CCN5CCOCC5)CSc5ccccc5)c(S(=O)(=O)C(F)(F)F)c4)cc3)CC2)C1 [Navitoclax] (partner 0.5 µM)
In a few lines: as §1

For SK-MES-1, the relative viability in experiment [1] (first compound 0.02 µM) came out at 1.07; in experiment [1] (first compound 0.2 µM) it was 0.606; in experiment [1] (first compound 0.6325 µM), 0.349; in experiment [1] (first compound 2 µM), 0.255; in experiment [2] (first compound 0.02 µM) it was 0.471; in experiment [2] (first compound 0.2 µM), 0.494. In addition, the relative viability in experiment [2] (first compound 0.6325 µM) amounted to 0.373; in experiment [2] (first compound 2 µM) it was 0.357; in experiment [3] (first compound 0.02 µM), 0.337; in experiment [3] (first compound 0.2 µM), 0.285; in experiment [3] (first compound 0.6325 µM), 0.244; in experiment [3] (first compound 2 µM), 0.277. Also, the relative viability stood at 0.925 in experiment [4] (first compound 0.005 µM); 0.329 in experiment [4] (first compound 0.01581 µM); 0.28 in experiment [4] (first compound 0.05 µM); 0.173 in experiment [4] (first compound 0.1581 µM); 0.134 in experiment [4] (first compound 0.5 µM).
In the case of SW 1573, the relative viability in experiment [1] (first compound 0.02 µM) turned out to be 0.253; in experiment [1] (first compound 0.2 µM) it was 0.228; in experiment [1] (first compound 0.6325 µM), 0.323; in experiment [1] (first compound 2 µM), 0.169; in experiment [2] (first compound 0.02 µM) it was 1.09; in experiment [2] (first compound 0.2 µM), 1.32. The relative viability in experiment [2] (first compound 0.6325 µM) came to 0.546; in experiment [2] (first compound 2 µM), 0.885; in experiment [3] (first compound 0.02 µM) it was 0.398; in experiment [3] (first compound 0.2 µM) it was 0.353; in experiment [3] (first compound 0.6325 µM), 0.29; in experiment [3] (first compound 2 µM), 0.236. Moreover, the relative viability in experiment [4] (first compound 0.005 µM) was found to be 0.898; in experiment [4] (first compound 0.01581 µM), 0.297; in experiment [4] (first compound 0.05 µM), 0.193; in experiment [4] (first compound 0.1581 µM) it was 0.0915; in experiment [4] (first compound 0.5 µM), 0.0731.
